Laboratory results reported in paper PMC5430744 (Scientific Reports, 2017).
Read-outs that look alike come from different tables or passages of the source.

Key:
[1] = biological target: T1, Smon0121-Smon0122(10xHis)/Smon0120-Smon0120 (Streptobacillus moniliformis, UniProt D1AWD7); settings: detergent-solubilised transporter
T1 construct: gene Smon_0120

Smon0127 = biological target: T2, Smon0127 (Streptobacillus moniliformis, UniProt D1AWE4); test: UGL enzyme assay, decrease of absorbance at […] nm; format: biochemical
T2 construct: gene Smon_0127; recombinant Smon0127

Smon0123 = Smon0123 (Streptobacillus moniliformis, UniProt D1AWE0); test: X-ray crystal structure; tryptophan fluorescence titration; DSF; format: binding; parameters: gene Smon_0123; Smon0123 (N-18/C-5) in the crystal; recombinant Smon0123 in solution
Smon0123, sequence (D1AWE0 entry or part of it): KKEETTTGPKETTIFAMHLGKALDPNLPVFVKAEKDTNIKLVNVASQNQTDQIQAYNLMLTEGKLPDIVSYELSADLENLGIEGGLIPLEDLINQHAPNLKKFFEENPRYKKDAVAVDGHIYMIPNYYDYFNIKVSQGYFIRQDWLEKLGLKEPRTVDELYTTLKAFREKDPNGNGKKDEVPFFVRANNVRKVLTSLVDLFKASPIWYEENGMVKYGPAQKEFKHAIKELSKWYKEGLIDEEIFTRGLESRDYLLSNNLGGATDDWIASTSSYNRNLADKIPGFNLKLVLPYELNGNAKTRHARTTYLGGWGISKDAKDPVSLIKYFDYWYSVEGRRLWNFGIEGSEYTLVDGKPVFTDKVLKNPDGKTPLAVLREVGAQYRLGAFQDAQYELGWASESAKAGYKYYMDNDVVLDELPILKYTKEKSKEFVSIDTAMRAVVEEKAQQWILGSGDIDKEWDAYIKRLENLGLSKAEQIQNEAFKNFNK

T2 sequence (D1AWE4 entry or part of it): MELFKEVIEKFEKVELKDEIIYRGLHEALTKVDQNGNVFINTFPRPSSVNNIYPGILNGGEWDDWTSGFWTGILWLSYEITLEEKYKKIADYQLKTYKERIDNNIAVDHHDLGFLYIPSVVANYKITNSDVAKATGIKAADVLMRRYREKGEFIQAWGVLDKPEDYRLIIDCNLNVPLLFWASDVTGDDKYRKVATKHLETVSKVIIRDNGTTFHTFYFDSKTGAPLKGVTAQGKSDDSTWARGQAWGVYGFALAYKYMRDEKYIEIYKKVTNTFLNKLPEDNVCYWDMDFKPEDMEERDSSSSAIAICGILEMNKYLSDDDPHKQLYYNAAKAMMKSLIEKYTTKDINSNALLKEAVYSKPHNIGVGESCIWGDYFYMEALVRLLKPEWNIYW
T1 sequence (D1AWD7 entry or part of it): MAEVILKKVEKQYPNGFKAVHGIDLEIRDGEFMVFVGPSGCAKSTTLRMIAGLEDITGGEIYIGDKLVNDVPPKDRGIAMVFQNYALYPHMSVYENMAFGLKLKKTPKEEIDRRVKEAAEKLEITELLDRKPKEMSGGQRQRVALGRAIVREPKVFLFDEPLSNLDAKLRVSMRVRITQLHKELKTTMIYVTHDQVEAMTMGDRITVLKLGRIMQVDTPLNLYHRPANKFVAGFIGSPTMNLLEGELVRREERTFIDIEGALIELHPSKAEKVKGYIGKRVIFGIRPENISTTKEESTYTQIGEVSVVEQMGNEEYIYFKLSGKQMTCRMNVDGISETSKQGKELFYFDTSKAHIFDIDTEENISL
T1 sequence (D1AWD8 entry or part of it, further chain): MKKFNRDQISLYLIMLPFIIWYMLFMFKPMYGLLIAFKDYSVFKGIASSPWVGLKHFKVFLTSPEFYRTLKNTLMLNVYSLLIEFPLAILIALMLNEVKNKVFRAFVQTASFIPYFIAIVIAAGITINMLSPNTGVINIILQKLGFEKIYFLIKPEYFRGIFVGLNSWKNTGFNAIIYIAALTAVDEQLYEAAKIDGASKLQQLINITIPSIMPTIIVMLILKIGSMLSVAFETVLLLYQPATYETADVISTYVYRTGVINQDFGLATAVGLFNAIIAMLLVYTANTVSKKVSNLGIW
T1 sequence (D1AWD9 entry or part of it, further chain): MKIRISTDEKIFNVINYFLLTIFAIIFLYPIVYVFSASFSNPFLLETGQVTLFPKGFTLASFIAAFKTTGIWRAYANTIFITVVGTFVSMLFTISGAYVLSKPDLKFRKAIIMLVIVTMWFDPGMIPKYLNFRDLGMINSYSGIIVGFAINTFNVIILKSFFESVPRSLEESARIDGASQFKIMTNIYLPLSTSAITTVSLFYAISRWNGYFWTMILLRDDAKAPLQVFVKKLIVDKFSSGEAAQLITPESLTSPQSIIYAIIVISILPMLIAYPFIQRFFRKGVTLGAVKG

## Nc1ncnc2c1ncn2[C@@H]1O[C@H](COP(=O)(O)OP(=O)(O)OP(=O)(O)O)[C@@H](O)[C@H]1O [ATP]
[1]
  phosphate release from ATP: in the soluble form with detergents exhibited ATPase activity

## CC(=O)N[C@H]1C(O)O[C@H](CO)[C@H](O)[C@@H]1O[C@@H]1OC(C(=O)O)=C[C@H](O)[C@H]1O (stereo partly shown) [CΔ0S]
Smon0127
  UGL enzyme assay, decrease of absorbance at 235 nm: 4.46 units/mg
Smon0123; read-out: Kd
  Kd: 635 ± 122 nM

## CC(=O)N[C@H]1C(O)O[C@H](CO)[C@H](OS(=O)(=O)O)[C@@H]1O[C@@H]1OC(C(=O)O)=C[C@H](O)[C@H]1O (stereo partly shown) [CΔ4S]
Smon0127
  UGL enzyme assay, decrease of absorbance at 235 nm: 0.342 units/mg

## CC(=O)N[C@H]1C(O)O[C@H](COS(=O)(=O)O)[C@H](O)[C@@H]1O[C@@H]1OC(C(=O)O)=C[C@H](O)[C@H]1O (stereo partly shown) [CΔ6S]
Smon0127
  UGL enzyme assay, decrease of absorbance at 235 nm: 0.272 units/mg
Smon0123
  Kd: 5GX6 for Smon0123/C∆4S, 5GX7 for Smon0123/C∆6S

## CC(=O)N[C@H]1C(O)O[C@H](CO)[C@@H](O)[C@@H]1O[C@@H]1OC(C(=O)O)=C[C@H](O)[C@H]1O (stereo partly shown) [ΔHA]
Smon0127
  UGL enzyme assay, decrease of absorbance at 235 nm: 2.26 units/mg
